Consider 16 compounds from patent US6380177B1, “LPA analogs as agonists of the Edg2 LPA receptor” (Atairgin Technologies, Inc., priority 1999, dated 2002).

Entries after “also recorded” stand apart in the source; their conditions may differ.

Assay [1] concerns the target T1, Edg2 receptor (Homo sapiens, UniProt Q92633).
T1 construct: expressed in transfected cells; host or cells: Saccharomyces cerevisiae JEY5 + pJE15
The following applies: cited from earlier work; for activation of FUS1::lacZ (previously known): yeast expressing the Edg2 receptor, previously known results.

For another assay, the system named is ERK. Nature of the assay: ERK activity in A549 lung carcinoma overexpressing Edg2 mRNA. In kind it is cell-based. The following applies: overexpresses Edg2 mRNA. The text has this:
Edg2 is not involved in the activation of the MAPKinase ERK. This is somewhat surprising since Edg2 coupled to the endogenous Saccharomyces G-protein, it was reasonable to conclude that Edg2 may couple to mammalian Gi heterotrimeric G-proteins. If this were true, then Edg2 would activate ERK, which is activated by LPA in a pertusis toxin-dependent manner. However, the SAR of LPA for ERK activation is completely different from the SAR of LPA-mediated activation of FUS1::lacZ and calcium mobilization. It is unlikely that expressing this receptor in yeast has changed its ligand binding characteristics. The somatostatin 2A receptor when expressed in yeast maintains it's binding profiles when compared with mammalian cells.

Assay [2] deals with MDA MB 231 cells. Conditions: cited from earlier work.
The test system of a further assay is ERK1 and ERK2. Nature of the assay: ERK immune complex kinase assay in C3H/10T½ fibroblasts. In kind it is cell-based, Murine. The following applies: C3H/10T½ fibroblasts treated with 10M analogue, stimulated 5 minutes. On the procedure: Since Edg2 couples to Gpa1, this receptor could also couple to Gi in mammalian cells as well. […] Murine C3H/10T½ fibroblasts were treated with […] analogue and assayed for induction of ERK½ activity. […] The structural requirements of LPA with respect to ERK activation are quite different from the yeast Edg2 lacZ reporter assay. For example, the hydroxyl on the sn-2 carbon of the glycerol can be substituted with little effect in the Edg2-mediated activation of FUS1::lacZ whereas in ERK activation, loss of this hydroxyl almost completely abolishes activity.
LacZ assays in response to lysophosphatidic acid and LPA analogs- JEY5+pJE15 was grown on SC media containing either 2% galactose or 2% glucose lacking uracil to an approximate O.D. of 0.1-0.5 prior to the addition of lipid or α-factor. […] Color development was measured at A420 and normalized to A600. Units were expressed as Miller Units. […] The phosphorylated MBP was resolved on a 14% SDS-PAGE gel (Novex), stained, dried and the Coomassie Brilliant Blue-stained band was excise and counted on a liquid scintillation counter (Beckman).

For assay [3], the target named is T1, Edg2 receptor. Nature of the assay: FUS1::lacZ reporter assay in yeast expressing the Edg2 receptor. In kind it is cell-based. Conditions: for activation of FUS1::lacZ by 18:1 analogs (FIG. 4): 200 μM LPA or LPA analog, 18:1 acyl LPA as 100%. From the text:
A yeast expressing the Edg2 receptor is one way to avoid such problems of multiple receptors. Edg2 has been functionally expressed in the yeast Saccharomyces cerevisiae and provides a facile system with which to analyze this particular receptor. Edg2 couples to the yeast pheromone response pathway selectively in response to exogenously added LPA and activates two easily assayed reporter genes, lacZ and HIS3, that are fused to the pheromone-inducible FUS1 promoter. […] Although the yeast assay is relatively insensitive to LPA compared with mammalian signaling events (the yeast assay has an E.C.50 of 20 μM), yeast offers the advantage of specificity; the induction of FUS1::lacZ by LPA is absolutely dependent on the Edg2 receptor being expressed.
LacZ assays in response to lysophosphatidic acid and LPA analogs- JEY5+pJE15 was grown on SC media containing either 2% galactose or 2% glucose lacking uracil to an approximate O.D. of 0.1-0.5 prior to the addition of lipid or α-factor. Acyl-LPA chain length analogs; 6:0, 10:0, 14:0, 16:0, 18:0, 18:1 and 24:1 (Avanti Polar Lipids) were stored dissolved in chloroform and dried down under vacuum immediately prior to experiments and resuspended in BBS/EDTA (50 mM NH4HCO3, 104 mM NaCl, 250 μM EDTA2Na pH 7.63) at 20 mM with sonication until the solution was clear. The other analogs that were custom synthesized for this report were stored in 100% ethanol at −20° C., dried and resuspended in BBS/EDTA immediately prior to use. Analogs not having a phosphate were stored in 100% DMSO and added directly to the yeast culture. […] Cells were grown for 7 hours prior to assaying at which time 100 μl of yeast culture were then added to […] assay buffer (60 mM Na2HPO4, 40 mM NaH2PO4, 10 mM KCl, 0.1 mM MgSO4, pH 7.0 plus 2.7 mL β-mercaptoethanol per liter) plus 50 μl 0.1% SDS+three drops Chloroform. Cells were vortexed for 10 seconds and incubated for 5 minutes at 28° C. 200 μl of 4mg/ml o-nitrophenol-β-D-galactopyranoside (ONPG, Sigma) was added and the reaction was incubated 30 minutes at 28° C. The assay was stopped by the addition of 500 μl 1M Na2CO3. Color development was measured at A420 and normalized to A600. Units were expressed as Miller Units. Competition assays between 18:1 acyl-LPA and the short chain analogs were essentially performed in the same manner except that both lipids were added simultaneously and the yeast was allowed to grow for the standard seven-hour time period. ERK immune complex kinase assays- C3H/10T½ cells were cultured in Basal Medium Eagle (BME, Gibco)+10% heat inactivated fetal calf serum until quiescent in 6 cm dishes. Cultures were serum starved for 18 hours in BME and stimulated with LPA or an LPA analog for 5 minutes. Dishes were placed on ice, washed with ice cold PBS and lysed in 500 μL lysis buffer (20 mM Tris pH8.0, 137 mM NaCl, 1mM EGTA, 1% Triton X-100, 10% glycerol, 15 mM MgCl2, 1 mM NaVO4, 50 mM NaF, 1mM Pefabloc, 20 μM Leupeptin, 10 μg/mL Aprotinin). To 200 μg total protein, 2 μL anti-ERK1 and 2 μL anti-ERK2 (Santa Cruz) plus 20 μL protein G-agarose beads (Boehringer-Mannheim, 50% slurry) were added and incubated with continuous rocking for two hours at 4° C. The agarose bead-ERK immune complexes were washed twice with 1mL lysis buffer then once in 1mL kinase buffer (30 mM Tris pH 8.0, 20 mM MgCl2, 2 mM MnCl2) and then drained to dryness with a fine gauge Hamilton syringe. The kinase reaction was started by adding 30 μL kinase buffer containing 2 μg myelin basic protein (MBP, Sigma), 10 μM cold ATP and 2.5 μCi [^32P]γ-ATP (Amersham). The reaction was incubated for 25 minutes at 30° C. and then stopped by the addition of 10 μL hot 4×-sample buffer. The phosphorylated MBP was resolved on a 14% SDS-PAGE gel (Novex), stained, dried and the Coomassie Brilliant Blue-stained band was excise and counted on a liquid scintillation counter (Beckman).

Assay [4] concerns MDA MB 231 cells. The following applies: cited from earlier work. The source holds these as a separate data set.

T1 sequence (Q92633 whole entry): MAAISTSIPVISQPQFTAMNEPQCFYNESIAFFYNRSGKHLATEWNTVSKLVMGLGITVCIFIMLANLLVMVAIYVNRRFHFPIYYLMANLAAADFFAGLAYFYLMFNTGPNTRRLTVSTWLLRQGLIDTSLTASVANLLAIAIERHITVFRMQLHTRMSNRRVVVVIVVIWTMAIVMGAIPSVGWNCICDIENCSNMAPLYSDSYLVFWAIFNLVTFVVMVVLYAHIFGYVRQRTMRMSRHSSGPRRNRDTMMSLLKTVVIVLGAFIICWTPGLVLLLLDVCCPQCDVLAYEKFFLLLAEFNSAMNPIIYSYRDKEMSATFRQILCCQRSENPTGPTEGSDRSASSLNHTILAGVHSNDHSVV

In the case of “O-acyl-2-hydroxyl-sn-glycero-3-phosphate [LPA]”, the EC50 on Edg2 receptor [1] (yeast expressing Edg2, FUS1::lacZ reporter, read-out: E.C.50 of the yeast assay) was 20 µM. For the same compound, in the assay on ERK, the “stimulation of ERK activity” value is “does not stimulate ERK activity”.
As for `CCCCCC(=O)OC[C@@H](O)COP(=O)(O)O` [Compound 1], the “activation of FUS1::lacZ (previously known)” value on Edg2 receptor [1] was “inactive”.
Take `CCCCCCCC/C=C\CCCCCCCC(=O)OCCCOP(=O)(O)O` [Compound 12, 1-(3-propyl oleoate) phosphate]: the calcium mobilization result with MDA MB 231 cells [2] is given as “only slightly mobilizes calcium”. Besides, the “activation of ERK½ (FIG. 5)” value in the assay with ERK1 and ERK2 is on record as “does not activate ERK”. Further, the “activation of FUS1::lacZ by 18:1 analogs (FIG. 4)” value at Edg2 receptor [3] is “retained some FUS1::lacZ activity; also recorded: increased activity significantly; also recorded: does activate FUS1::lacZ”. Also, the “inhibition of cAMP accumulation” value in the assay on MDA MB 231 cells [4] was “does not inhibit cAMP accumulation”.
Take `CCCCCCCC/C=C\CCCCCCCCOCCCOP(=O)(OC)OC` [Compound 29, Dimethyl 3-oleyloxypropyl-1-phosphate]: on Edg2 receptor [3], the “activation of FUS1::lacZ by 18:1 analogs (FIG. 4)” value was “inactive”.
In the case of `CCCCCCCCCCCCCCCC(=O)OC[C@@H](O)COP(=O)(O)O` [Compound 4], on Edg2 receptor [1], the “activation of FUS1::lacZ (previously known)” value is listed as “significant activity”.
As to `CCCCCCCC/C=C\CCCCCCCC(=O)OCC(COP(=O)(OC)OC)OC` (racemic) [Compound 18, Dimethyl 3-O-oleoyl-2-O-methyl-rac-glycero-1-phosphate], at Edg2 receptor [3], the “activation of FUS1::lacZ by 18:1 analogs (FIG. 4)” value is recorded as “had less lacZ activity”.
`CCCCCCCC/C=C\CCCCCCCC(=O)OC[C@@H](O)COP(=O)(O)O` [Compound 6]: the “activation of FUS1::lacZ (previously known)” value at Edg2 receptor [1] is “most active”.
For the compound `CCCCCCCC/C=C\CCCCCCCCOCC(O)COP(=O)(O)O` (racemic) [Compound 26, 3-O-Oleyl-rac-glycero-1-phosphate], the “activation of ERK½ (FIG. 5)” value in the assay with ERK1 and ERK2 is given as “can activate ERK almost as well as the ester form”. Moreover, on Edg2 receptor [3], the “activation of FUS1::lacZ by 18:1 analogs (FIG. 4)” value was “inactive”.
In the case of `CCCCCCCC/C=C\CCCCCCCC(=O)OCC(Br)COP(=O)(O)O` (racemic) [Compound 23, 3-O-Oleoyl-2-deoxy-2-bromo-rac-glycero-1-phosphate], at Edg2 receptor [3], the “activation of FUS1::lacZ by 18:1 analogs (FIG. 4)” value is “retained some FUS1::lacZ activity”.
With `CCCCCCCCCCCCCCCCCC(=O)OC[C@@H](O)COP(=O)(O)O` [Compound 5], the “activation of FUS1::lacZ (previously known)” value on Edg2 receptor [1] was “significant activity”.
As to `CCCCCCCCCCCCCC(=O)OC[C@@H](O)COP(=O)(O)O` [Compound 3, reference compound], at Edg2 receptor [3] (yeast expressing the Edg2 receptor, acyl-LPA chain length analogs), the “activation of FUS1::lacZ, dependence on acyl chain length (FIG. 2)” value was “inactive”.
Consider `CCCCCCCC/C=C\CCCCCCCC(=O)OCC(CO)OC` (racemic) [Compound 17, 1-O-Oleoyl-2-O-methyl-rac-glycerol], for which the “activation of FUS1::lacZ by 18:1 analogs (FIG. 4)” value on Edg2 receptor [3] is “still retained some lacZ activity”.
For `CCCCCCCC/C=C\CCCCCCCC(=O)OCCCO` [Compound 10, 3-Hydroxypropyl oleate], the “activation of FUS1::lacZ by 18:1 analogs (FIG. 4)” value on Edg2 receptor [3] was “still retained some lacZ activity”.
For the compound `CCCCCCCCCC(=O)OC[C@@H](O)COP(=O)(O)O` [Compound 2], the “activation of FUS1::lacZ (previously known)” value at Edg2 receptor [1] was “inactive”.
Turning to `CCCCCCCC/C=C\CCCCCCCCOCC(COP(=O)(O)O)OC` (racemic) [Compound 36, 3-O-Oleyl-2-O-methyl-rac-glycero-1-phosphate], the “activation of FUS1::lacZ by 18:1 analogs (FIG. 4)” value at Edg2 receptor [3] was “inactive”.
Same read-out and setting: next, `CCCCCCCC/C=C\CCCCCCCC(=O)OCCCOP(=O)(OC)OC` [Compound 11, Dimethyl 1-(3-propyl oleoate) phosphate]: “had less lacZ activity”.
